{"source": "patent EP0471221B1", "about": "“Herbicidal compositions” (IDEMITSU KOSAN COMPANY LIMITED, priority 1990, dated 1992)", "key": {"Viola arvensis": {"test_system": "Viola arvensis", "experiment": "Test on post-emergence treatment (greenhouse pots, foliage spray)", "format": "in vivo", "conditions": "after 20 days", "source_text": "(§1) By uniformly blending 97 parts of clay (trademark: JIKURAITO, manufactured by JIKURAITO KOGYO) as the carrier, 1.5 parts of alkylaryl sulfonate (trademark: NEOPELEX, manufactured by Kao Atlas Co., Ltd.) as the surfactant, 1.5 parts of nonionic and anionic surfactant (trademark: Solpol 800A, manufactured by Toho Chemical Industry Co., Ltd.) and grinding into a powder, a carrier for wettable powders was obtained.\n(§2) By uniformly blending 90 parts of this carrier for wettable powders and 10 parts of the triazine derivative shown in Table 1 (Compounds A-1 through A-7) or 10 parts of the thiocarbamate type herbicide shown in Table 2 (Compounds B) and grinding into a powder, wettable powders were obtained.\n(§3) Furthermore, the carrier for wettable powders containing the triazine derivative obtained above was blended with the carrier for wettable powders containing the thiocarbamate type herbicide in definite amounts (ratios as active ingredients), uniformly kneaded and ground into powders to give wettable powders.\n(§4) Wagner's pots of 1/2000 ares were filled with soil from upland fields and planted with weed seeds of Alopecurus myosuroides, Galium aparine L., Veronica hederifolia and Viola arvensis and crop seeds of wheat, barley and oat. The seeds were then covered with soil and cultivated in a greenhouse. An aqueous suspension of a definite amount of the herbicide obtained in Formulation Example 6 was uniformly sprayed onto the foliage of 1.5 to 2.5 leaf stage of these weeds and 3 leaf stage of the crops at a spray volume corresponding to 100 liters/10 ares. Then, cultivation was performed in the greenhouse. After 20 days, crop injury and the herbicidal effect on the weeds were evaluated according to the criterion described below.\n(§5) The herbicidal rate described above was determined according to the following equation by measuring the raw weight of weed on the ground in the treated group and the raw weight of weed on the ground in the untreated group. [formula]\n(§6) Some data were extracted from the results shown in Table 3 and the synergistic effect of the triazine derivative and the thiocarbamate type herbicide was examined on Galium aparine L. and Viola arvensis according to the following method. [formula] Q a : found data (%) of herbicidal rate when treated at a dosage corresponding to a g/10 ares using the triazine derivative alone as active ingredient Q b : found data (%) of herbicidal rate when treated at a dosage corresponding to b g/10 ares using the thiocarbamate type herbicide alone as active ingredient Q E : expected value [Limpel, L.E., P.H. Schuldt and D. Lamont, Proc. NEWCC, 16, 48-53 (1962)] Herein, when the found data (herbicidal rate) of the herbicidal obtained by mixing the triazine derivative and the thiocarbamate type herbicide is larger than Q E, it can be said that the herbicidal activity is synergistic."}, "Galium aparine L.": {"test_system": "Galium aparine L.", "experiment": "Test on post-emergence treatment (greenhouse pots, foliage spray)", "format": "in vivo", "conditions": "after 20 days", "source_text": "as §1, §2, §3, §4, §5, §6"}, "[1]": {"conditions": "triazine derivative alone, 10 g/10a"}, "[2]": {"conditions": "triazine derivative alone, 5 g/10a"}, "[3]": {"conditions": "thiocarbamate type herbicide alone, 100 g/10a"}}, "data": [{"compound": "CC(Nc1nc(N)nc(C(C)(C)F)n1)c1cc2ccccc2o1", "note": "(stereo not drawn) [A₁, 2-amino-4-[1-(benzofuran-2'-yl)ethylamino]-6-(α-fluoro,α-methylethyl)-s-triazine]", "values": [{"measurement": "Percent control of Viola arvensis(%)", "setting": "Viola arvensis; [1]", "result": 54, "unit": "%"}, {"measurement": "Percent control of Galium aparine L.(%)", "setting": "Galium aparine L.; [1]", "result": 38, "unit": "%"}]}, {"compound": "Cc1cc(C)cc(OCC(C)Nc2nc(N)nc(C(C)(C)F)n2)c1", "note": "(stereo not drawn) [A₇, 2-amino-4-(α-fluoro,α-methylethyl)-6-[2-(3',5'-dimethylphenoxy)-1-methylethylamino]-s-triazine]", "values": [{"measurement": "Percent control of Viola arvensis(%)", "setting": "Viola arvensis; [2]", "result": 63, "unit": "%"}, {"measurement": "Percent control of Galium aparine L.(%)", "setting": "Galium aparine L.; [2]", "result": 40, "unit": "%"}]}, {"compound": "CC(COc1cccc(F)c1)Nc1nc(N)nc(C(C)(C)F)n1", "note": "(stereo not drawn) [A₅, 2-amino-4-(α-fluoro,α-methylethyl)-6-[2-(3'fluorophenoxy)-1-methylethylamino]-s-triazine]", "values": [{"measurement": "Percent control of Viola arvensis(%)", "setting": "Viola arvensis; [2]", "result": 72, "unit": "%"}, {"measurement": "Percent control of Galium aparine L.(%)", "setting": "Galium aparine L.; [2]", "result": 38, "unit": "%"}]}, {"compound": "CCCN(CCC)C(=O)SCc1ccccc1", "note": "[B, S-benzyldipropyl thiocarbamate, reference compound]", "values": [{"measurement": "Percent control of Viola arvensis(%)", "setting": "Viola arvensis; [3]", "result": 19, "unit": "%"}, {"measurement": "Percent control of Galium aparine L.(%)", "setting": "Galium aparine L.; [3]", "result": 36, "unit": "%"}]}, {"compound": "Cc1cc(C)cc(OCC(C)Nc2nc(N)nc(C(C)(C)Cl)n2)c1", "note": "(stereo not drawn) [A₆, 2-amino-4-(α-chloro,α-methylethyl)-6-[2-(3',5'-dimethylphenoxy)-1-methylethylamino]-s-triazine]", "values": [{"measurement": "Percent control of Viola arvensis(%)", "setting": "Viola arvensis; [1]", "result": 78, "unit": "%"}, {"measurement": "Percent control of Galium aparine L.(%)", "setting": "Galium aparine L.; [1]", "result": 64, "unit": "%"}]}, {"compound": "CC(Nc1nc(N)nc(C(C)(C)F)n1)c1cc2ccccc2s1", "note": "(stereo not drawn) [A₃, 2-amino-4-[1-(benzothiophen-2'-yl)ethylamino]-6-(α-fluoro,α-methylethyl)-s-triazine]", "values": [{"measurement": "Percent control of Viola arvensis(%)", "setting": "Viola arvensis; [1]", "result": 64, "unit": "%"}, {"measurement": "Percent control of Galium aparine L.(%)", "setting": "Galium aparine L.; [1]", "result": 56, "unit": "%"}]}, {"compound": "CC(F)c1nc(N)nc(NC(C)c2cc3ccccc3o2)n1", "note": "(stereo not drawn) [A₂, 2-amino-4-[1-(benzofuran-2'-yl)ethylamino]-6-(α-fluoroethyl)-s-triazine]", "values": [{"measurement": "Percent control of Viola arvensis(%)", "setting": "Viola arvensis; [2]", "result": 68, "unit": "%"}, {"measurement": "Percent control of Galium aparine L.(%)", "setting": "Galium aparine L.; [2]", "result": 37, "unit": "%"}]}, {"compound": "Cc1cccc(OCC(C)Nc2nc(N)nc(C(C)(C)F)n2)c1", "note": "(stereo not drawn) [A₄, 2-amino-4-(α-fluoro,α-methylethyl)-6-[2-(3'-methylphenoxy)-1-methylethylamino]-s-triazine]", "values": [{"measurement": "Percent control of Viola arvensis(%)", "setting": "Viola arvensis; [1]", "result": 74, "unit": "%"}, {"measurement": "Percent control of Galium aparine L.(%)", "setting": "Galium aparine L.; [1]", "result": 62, "unit": "%"}]}]}
